Where two headings read alike, the source gives them in different places.

As usually defined, the Ki is the equilibrium dissociation constant of an inhibitor or competing ligand from its target.

Data set [1] deals with emopamil binding protein (EBP). Also noted: method as in PMID 11377189. Particulars: off-target affinity; cited from earlier work.
For data set [2], the system named is σ2R. Also noted: method as in PMID 26384292. Particulars: selectivity ratio; cited from earlier work.
In data set [3] the target is vesicular acetylcholine transporter (VAChT). Particulars: off-target affinity; literature value, no reference given; cited from earlier work.
Data set [4] relates to σ1R. More on the design: method as in PMID 25420090. Particulars: rodent acute and neuropathic pain models; cited from earlier work.
Data set [5] deals with σ2R. More on the design: method as in PMID 25420090. Particulars: selectivity ratio, previous work; cited from earlier work.
Details of data set [6]: method as in PMID 25420090. Particulars: cited from earlier work.
Data set [7] relates to non-target receptors or ion channels. Also noted: method as in PMID 25420090. Particulars: cited from earlier work.
Data set [8] has as its target T1, σ1R (Mus musculus, UniProt O55242).
T1 construct: The PET/CT studies in mice followed previously reported procedures; from tissue; host or cells: mouse brain in vivo (C57BL/6 wild type; 5xFAD transgenic)
Put plainly: Mice PET/CT imaging, baseline and self-blocking. The class given is in vivo, C57BL/6 mice. As for the experimental part:
PET/CT imaging studies of [^11C]CNY‐01 and [^11C]CNY‐02 were performed in male C57BL/6 mice. […] The whole‐brain time‐activity curve (TAC) of each tracer was generated. […] To investigate the binding specificity of [^11C]CNY‐01 and [^11C]CNY‐02, blocking studies were carried out by pre‐administrating mice with corresponding unlabeled ligands. […] This is due to the receptors in peripheral tissues being occupied by CNY‐01, leading to more radiotracer entering the brain and quickly washing out. […] Of note, the TACs show an increase in brain tracer uptake during the blocking studies, which could be attributed to peripheral blocking effects. To address this, we normalized the brain uptake data to the maximum radioactivity observed in the blood (input function). This normalization allowed us to account for peripheral changes in tracer availability.
Figure 3 Mice PET/CT study with [^11C]CNY‐01 and [^11C]CNY‐02. A) Representative baseline and blocking (pre‐treated with 1.0 mg kg^−1 CNY‐01) PET/CT images of [^11C]CNY‐01 focused on the brain (summed 30‒60 min, n = 4). B) Whole brain time‐activity curves of [^11C]CNY‐01 for baseline and blocking mice. C) The normalized baseline and blocking TACs of [^11C]CNY‐01 (normalized the brain uptake curves with the maximum radioactivity in the blood at each time point). D) Representative baseline and blocking (pre‐treated with 1.0 mg kg^−1 CNY‐02) PET/CT images of [^11C]CNY‐02 focused on the brain (summed 30‒60 min, n = 4). E) Whole brain time‐activity curves of [^11C]CNY‐02 for baseline and blocking mice. F) The normalized baseline and blocking TACs of [^11C]CNY‐02 (normalized the brain uptake curves with the maximum radioactivity in the blood at each time point). Data were presented as mean ± standard error of the mean (SEM). Quantification of results was performed using Student's t‐test (***p < 0.0001).
The PET/CT studies in mice followed previously reported procedures with minor modifications.^[ [53], [54] ^] Mice (wild‐type: C57BL/6, male, 6‐month‐old; AD transgenic: 5xFAD, male, 6‐month‐old, n = 4 for each group) were anesthetized with inhalational isoflurane (Patterson Vet Supply, Inc., Greeley, CO, USA) at 2.0% in a carrier of 2 L min^−1 medical oxygen, and maintained at 1.0% isoflurane during the imaging scan. Mice were injected with radiotracer (200 µL) via lateral tail vein catheterization at the start of the dynamic PET scan (Gamma Medica, Northridge, CA, USA). For blocking studies, the blocking agent was administered via the tail vein 5 min before radiotracer injection. Dynamic PET acquisition lasted 60 min and was followed by computed tomography (CT) for anatomic co‐registration. […] Reconstructed images were exported from the scanner in DICOM format and were analyzed using PMOD (PMOD 4.01).

Data set [9] relates to σ1R. Also noted: method as in PMID 28572487. Particulars: human brain, three-hour imaging period; cited from earlier work.
Data set [10] deals with σ1R. Particulars: cited from earlier work.

T1 sequence (O55242 whole entry): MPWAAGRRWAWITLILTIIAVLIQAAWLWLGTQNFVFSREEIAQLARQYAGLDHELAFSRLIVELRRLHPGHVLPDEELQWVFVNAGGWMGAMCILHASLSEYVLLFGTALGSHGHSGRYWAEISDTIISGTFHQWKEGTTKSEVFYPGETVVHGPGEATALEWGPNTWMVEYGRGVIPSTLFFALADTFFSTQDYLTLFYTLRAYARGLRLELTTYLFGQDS

As to `COc1cc(CCN2CCN(CCCc3ccccc3)CC2)ccc1O[11CH3]` [[^11C]SA4503], the results for the Ki in data set [1] and in data set [3] were 1.7 nM and 50 nM, respectively. The σ2R/σ1R in the data set on σ2R [2] is 13.3–55.0.
Take `Cc1nc(-c2ccc(Cl)cc2)nc(OCCCN2CCCCC2)c1Cl` [Lan-0101, 5‐chloro‐2‐(4‐chlorophenyl)‐4‐methyl‐6‐(3‐(piperidin‐1‐yl)propoxy)pyrimidine]: the antinociceptive effects entry in the data set on σ1R [4] is “dose‐dependent antinociceptive effects”. In addition, the σ2R/σ1R in the data set on σ2R [5] is on record as 1344. Moreover, the brain penetration result in data set [6] is “good brain penetration”. For the same compound, in [7], the “binding affinities to non-target receptors or ion channels” value is “no significant binding affinities”.
As for `Cc1nc(-c2ccc(Cl)cc2)nc(OCCCN2CCN([11CH3])CC2)c1Cl` [[^11C]CNY-02], at σ1R [8] (male C57BL/6 mice, baseline PET/CT), the “maximum standard uptake value (SUV) in the brain” value is recorded as 0.7. Further, the “blocking effect, brain uptake normalized to maximum radioactivity in the blood” value on σ1R [8] (pre-treated with 1.0 mg kg^−1 of the corresponding unlabeled ligand) is “does not show a significant blocking effect”.
Consider `O=c1sc2cc(CCC[18F])ccc2n1CCN1CCCCCC1` [[^18F]FTC-146], for which, in the data set with σ1R [9], the brain clearance result is recorded as “unexpectedly slow brain clearance”. Also, at σ1R [10], the Ki was 2.5 pM.

(Values after PMC12140300, “Development of Carbon‐11 Labeled Pyrimidine Derivatives as Novel Positron Emission Tomography (PET) Agents Enabling Brain Sigma‐1 Receptor Imaging” (Advanced Science, 2025).)
